From PubChem BioAssay AID624167 (Sanford-Burnham Center for Chemical Genomics, 2012)
Activity calls are given as the source filed them.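 Rule for the calls: active = mean IC50 for reducing PEG3 promoter reporter signal at or below a set limit, with IC50 above the limit in both counter screens; inactive = the rest, including counter screen hits.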

Key:
[1] = test system: PEG-3; test: inhibition of PEG-3 promoter-driven reporter – cell-based, HeLa, luciferase, CREF/GAPDH counter-screen panel, dose response (AID 624167); details: HeLa PEG-Prom luciferase reporter, overnight, CREF/GAPDH counter-screens
[2] = molecular target: PEG-3 (UniProt Q6IN02); test: as above; details: HeLa PEG-Prom luciferase reporter, overnight, CREF/GAPDH counter-screens, mean of runs
Sequence of PEG-3 (UniProt Q6IN02) (Q6IN02 whole entry, looked up): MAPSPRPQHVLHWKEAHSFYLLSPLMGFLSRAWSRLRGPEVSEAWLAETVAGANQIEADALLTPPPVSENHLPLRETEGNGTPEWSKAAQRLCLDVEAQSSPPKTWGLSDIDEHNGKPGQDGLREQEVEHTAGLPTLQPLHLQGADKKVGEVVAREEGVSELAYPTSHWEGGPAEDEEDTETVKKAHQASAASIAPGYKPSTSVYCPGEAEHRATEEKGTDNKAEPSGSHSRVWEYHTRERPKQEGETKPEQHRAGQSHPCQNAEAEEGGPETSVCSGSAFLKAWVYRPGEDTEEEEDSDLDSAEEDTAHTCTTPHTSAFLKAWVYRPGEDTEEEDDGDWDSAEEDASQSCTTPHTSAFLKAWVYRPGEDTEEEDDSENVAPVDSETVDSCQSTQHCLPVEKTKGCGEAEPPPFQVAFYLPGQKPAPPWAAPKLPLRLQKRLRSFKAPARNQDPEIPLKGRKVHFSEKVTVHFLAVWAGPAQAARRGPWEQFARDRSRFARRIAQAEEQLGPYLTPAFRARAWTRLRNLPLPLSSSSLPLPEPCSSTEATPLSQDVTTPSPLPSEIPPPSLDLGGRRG

[3] = run 1, dose range 1, individual replicate IC50 per panel
[4] = run 2, dose range 1, individual replicate IC50 per panel

Row | Structure (SMILES) | IC50 [1, 3] [µM] | IC50 [1, 4] [µM] | IC50 [2]
1 | O=S(=O)(/N=C(/Sc1ccccc1)c1ccccc1)c1ccccc1 | 28.9 | 19.1 | inactive
2 | CCc1nc(Sc2nnnn2-c2ccccc2)c2c3c(sc2n1)CCCC3 | 24.7 | 16.3 | inactive
3 | Cc1c(C(=O)N2CCN(c3ccc(F)cc3)CC2)sc2ncnc(N3CCN(c4ccccn4)CC3)c12 | 11.9 | 15.6 | 13.7 µM
4 | Cc1ccccc1CN1Cc2cnnn2-c2ccccc2C1C#N (stereo not drawn) | 15.6 | 12.1 | 13.9 µM
5 | COc1ccc(OC)c(Cc2cnc3nc(N)nc(N)c3c2C)c1 | 48.7 | 1.36 | inactive
6 | CCCN(CC(=O)Nc1ccccc1C)C(=O)CCl | 56.1 | > 100 | inactive
7 | C[C@@]12C(=O)Nc3cc(Cl)ccc3C(=O)N1[C@H]1c3cc(Cl)ccc3OC[C@@H]1[C@@H]2c1ccccc1 | 16.3 | 6.77 | 11.5 µM
8 | Cc1ccsc1C(=O)OCC(=O)c1cc(C)n(CC2CCCO2)c1C (stereo not drawn) | 11.8 | 18 | 14.9 µM
9 | O=C1CCC2S/C(=C/Nc3ccc(C(F)(F)F)cc3)C(=O)N12 (stereo not drawn) | 6.39 | 47.7 | inactive
10 | CC(=O)Nc1ccc(S(=O)(=O)N(Cc2cccnc2)Cc2cc3ccccc3[nH]c2=O)cc1 | > 100 | > 100 | > 100 µM (inactive)
11 | O=C(NC1CCCCC1)C(c1cccnc1)N(C(=O)CCl)c1cccc(Cl)c1 (stereo not drawn) | 17.6 | 13.4 | 15.5 µM
12 | COc1cccc(NC(=O)CN(C)C(=O)c2cc(-c3ccc(F)cc3)nc3ccccc23)c1 | 25.8 | 44.6 | inactive
13 | CC(=O)c1ccc(Nc2nc(C(N)Cc3ccc(Cl)cc3)cs2)cc1 (stereo not drawn) | 25.7 | 15.1 | inactive
14 | Cc1cc2sc3ccc(C#CC4(O)CCCCC4)cc3c(=O)c2cc1C | 0.265 | < 0.2 | 0.265 µM
15 | CC(C)N1CCc2c(sc(NC(=O)c3cc4cc([N+](=O)[O-])ccc4s3)c2C(N)=O)C1 | 22.5 | 17.6 | inactive
16 | NC(=O)c1nsc(C(=O)N(c2ccccc2F)C(C(=O)NCc2ccc(F)cc2)c2ccc(O)cc2)c1N (stereo not drawn) | 30.4 | 16.6 | inactive
17 | c1ccc(CN2CCC(Nc3nc(-c4cccnc4)nc4ccccc34)CC2)cc1 | 20.2 | 26.7 | inactive
18 | CCCCC(=O)NC(c1ccccc1Cl)c1ccc2cccnc2c1O (stereo not drawn) | 2.98 | > 100 | inactive
19 | COc1cc(CNC(C)(C)CO)cc(Br)c1OCc1ccc(Cl)cc1 | 20.6 | 12.6 | 16.6 µM
20 | CCCCn1nnnc1C(CCSC)N1CCC(n2c(=O)[nH]c3ccccc32)CC1 (stereo not drawn) | 34.4 | 70.3 | inactive
21 | CN(C)CCNC(=O)/C(=C/c1ccc(-c2ccc(Cl)cc2)o1)NC(=O)c1ccccc1 | 18.1 | 9.62 | 13.9 µM
22 | COc1cc(NC(=O)Nc2nc(C(N)CCc3ccccc3)cs2)cc(OC)c1OC (stereo not drawn) | 21.3 | 40.6 | inactive

Row | Structure (SMILES) | IC50 [1, 3] [µM] | IC50 [1, 4] [µM] | IC50 [2]
23 | O=C(CSc1nc(Nc2ccccc2)nc(N2CCOCC2)n1)Nc1cc(Cl)ccc1O | 13 | 14.5 | 13.7 µM
24 | Cc1c(C#N)c(N)nc2c3c(sc12)NC(=O)CC3c1ccc(Cl)cc1 (stereo not drawn) | 17.4 | 11 | 14.2 µM
25 | COc1ccc(CNC(=O)Nc2nc(C(N)Cc3ccc(F)cc3)cs2)cc1 (stereo not drawn) | 16.6 | 12.5 | 14.6 µM
26 | Cc1cc(Br)ccc1NC(=O)CN1C(=O)C2C3CC(c4ccccc4)C(C3)C2C1=O (stereo not drawn) | 23.9 | 41.9 | inactive
27 | O=C(CCl)N1N=C(c2ccco2)CC1c1cccs1 (stereo not drawn) | 24.2 | 30.4 | inactive
28 | COc1ccc2c(c1OC)C(=O)N1c3ccccc3C(=O)N(c3ccccc3F)C21 (stereo not drawn) | 15.1 | 11.6 | 13.4 µM
29 | CCN1CCN(Cc2c(O)ccc3c2O/C(=C\C=C\c2ccccc2)C3=O)CC1 | 46.6 | 11.5 | inactive
30 | CC(=O)Nc1cccc(-c2ccnc3c2CC(C)(C(=O)Nc2cccc(C(F)(F)F)c2)O3)c1 (stereo not drawn) | 5.21 | > 100 | inactive
31 | CC(=O)Nc1ccc(S(=O)(=O)N(Cc2ccco2)Cc2cc3ccccc3[nH]c2=O)cc1 | 18.5 | 22.4 | inactive
32 | Cc1cc(C(=O)CN2C(=O)c3ccccc3S2(=O)=O)c(C)n1C(C)C | 6.41 | 17.8 | 12.1 µM
33 | CCCCNc1nc(=S)n(-c2ccccc2)c(C)c1C(C)=O | 22 | 12.6 | 17.3 µM
34 | c1ccc(-c2cc(-c3nc4ccccc4[nH]3)c3ccccc3n2)cc1 | 15.3 | 39.9 | inactive
35 | COc1cccc(/C=N/NC(=O)c2c(-c3ccccc3)noc2C)c1O | 42.2 | > 100 | inactive
36 | CN1CCC(NC(=O)c2cc(-c3cccc(Br)c3)nc3ccccc23)CC1 | 20.9 | 15.1 | 18 µM
37 | CC1=NN(c2cccc(C(=O)O)c2)C(=O)/C1=C\C=C/c1ccccc1 | 17.7 | 12 | 14.8 µM
38 | CCN1CCN(c2nc(Nc3cc(OC)ccc3OC)nc(Nc3cc(OC)ccc3OC)n2)CC1 | 17 | 18.1 | 17.5 µM
39 | CN(C)CCNC(=O)c1sc2nc(-c3ccccc3)cc(C(F)(F)F)c2c1N | 20.5 | 19.8 | inactive
40 | COc1cc(C=NO)nc(-c2ccccn2)c1 | 0.84 | < 0.2 | 0.52 µM
41 | CN(C)C(=O)c1cccc(-c2cnc3c(NC=O)cc(-c4cccc(C(F)(F)F)c4)cn23)c1 | 11.6 | 20.3 | 16 µM
42 | CCN(CC)CCn1c2ccccc2c2cnc(N)c(C#N)c21 | 11.3 | 12.9 | 12.1 µM
43 | CCC(=O)NC(c1cccs1)c1cc([N+](=O)[O-])c2cccnc2c1O (stereo not drawn) | 12.4 | 11.7 | 12.1 µM
44 | N=c1c2c(-c3ccccc3)c(-c3ccccc3)n(Cc3ccccc3)c2ncn1CCO | 18.8 | 10.6 | 14.7 µM

Row | Structure (SMILES) | IC50 [1, 3] [µM] | IC50 [1, 4] [µM] | IC50 [2]
45 | COc1cccc(CN(C)C(=O)C(CCSC)NS(=O)(=O)c2ccc3c(c2)OCCO3)c1OC (stereo not drawn) | 61 | 8.89 | inactive
46 | O=[N+]([O-])c1cc(Cl)cc(/C=N\Nc2ccccn2)c1O | 1.39 | > 100 | inactive
47 | c1ccc(C(=NNc2nc3ccccc3s2)c2ccccn2)cc1 | 6.63 | 25.3 | 16 µM
48 | Cc1cccc(NC(=O)CSc2nc3ccccc3c3nc(CCc4c(C)n[nH]c4C)nn23)c1 | 27.9 | 37.7 | inactive
49 | Fc1ccc([C@@H]2CCNC[C@H]2COc2ccc3c(c2)OCO3)cc1 | 20 | 19 | 19.5 µM
50 | Cc1c(CCOC(=O)C23CC4CC(CC(C)(C4)C2)C3)sc[n+]1CC(=O)c1ccccc1 | 21.8 | 21.7 | inactive
51 | CN(C)c1ccc(/C=N/NC(=O)c2nnn(-c3nonc3N)c2COc2ccc(F)cc2)cc1 | > 100 | > 100 | > 100 µM (inactive)
52 | O=C(CN1CCCC1)Nc1ccc(-c2nc3cc(NC(=O)CN4CCCC4)ccc3o2)cc1 | > 100 | > 100 | > 100 µM (inactive)
53 | CC(NNC(=S)N1CCN(c2ccccn2)CC1)c1nccc2ccccc12 (stereo not drawn) | 15.2 | 36 | inactive
54 | CCc1ccc2c(c1)Sc1ccccc1CC2N1CCN(C)CC1 (stereo not drawn) | 19.7 | 38 | inactive
55 | CN1CCC(N(C)S(=O)(=O)c2ccc(NC(=O)COc3ccc(Br)cc3Cl)cc2)CC1 | 23 | 14.5 | 18.7 µM
56 | C=CCN=C1NN=C(c2cc(C)n(CC=C)c2C)CS1 | 11.5 | 23.3 | 17.4 µM
57 | COCCn1c(C)cc(C(=O)COC(=O)c2ccccc2Br)c1C | 32.1 | 53.3 | inactive
58 | Cc1cccc(CN2C(=O)[C@H]3Cc4c([nH]c5ccccc45)C(C)(C)N3C2=O)c1 | 29.9 | 28.6 | inactive
59 | COc1ccc(CN(C)C(=O)c2cc(-c3ccc(C)cc3C)nc3ccccc23)c(OC)c1OC | 14.9 | 24.8 | 19.8 µM
60 | N/C(=N\OC(=O)c1ccccc1)C(Cc1ccccc1)C(=O)NOC(=O)c1ccccc1 (stereo not drawn) | 15 | 11 | 13 µM
61 | O=C(CCN1C(=O)/C(=C/c2ccc(F)cc2)SC1=S)N[C@@H](CO)Cc1ccccc1 | 12.1 | > 100 | inactive
62 | C[C@@H]1[C@H]2[C@@H]3CC[C@@H](C3)[C@H]2CN[C@H]1c1cn(Cc2ccccc2)c2ccccc12 | 39 | 42.7 | inactive
63 | CCOc1ccc2nc(N(CCCN(C)C)C(=O)c3ccc(C(=O)c4ccccc4)cc3)sc2c1 | 20.3 | 7.58 | 13.9 µM
64 | CCCOC(=O)c1cccc(Nc2nc(-c3cccnc3)nc3ccccc23)c1 | 12.6 | 11.9 | 12.3 µM
65 | NC(N)=N/N=C/c1ccc(Cl)cc1Cl | 23.6 | 17.6 | inactive
66 | CNC[C@H](CC1CCCCC1)NC[C@H](NCCC1CCCC1)[C@H](C)O | 37.6 | 12.4 | inactive
